Key:
rats with induced SAH [1] = assay: Physiological parameters in operated SAH rats; assay type: in vivo, rat; details: sham, SAH+vehicle and treated SAH groups
Source text: Subarachnoid hemorrhage was induced by a model originally devised by Svendgaard et al and carefully described by Prunell et al (2003). Male Sprague-Dawley rats (350-400 g) were anaesthetized using 5% halothane (Halocarbon Laboratories, River Edge, N.J.) in N2O/O2 (30:70). The rat was intubated and artificially ventilated with inhalation of 0.5-1.5% halothane in N2O/O2 (70:30) during the surgical procedure. The depth of anaesthesia was carefully monitored and the respiration checked by regularly withdrawing arterial blood samples for blood gas analysis (Radiometer, Copenhagen, Denmark). An electric temperature probe was inserted into the rectum of the rat to record the temperature, which was maintained at 37° C. An arterial catheter to measure blood pressure was placed in the tail artery and a catheter to monitor intracranial pressure (ICP) was placed in the subarachnoid space under the subocciptal membrane. At either side of the skull, 3 mm from the midline and 4 mm anteriorly from the bregma, holes were drilled through the skull bone down to dura mater (without perforation) allowing the placement of two laser-Doppler flow probes to measure cortical CBF. Finally, a 27G blunt canula with side hole was introduced 6.5 mm anterior to bregma in the midline at an angle of 30° to the vertical. With the aperture pointing to the right, the needle was lowered until the tip reached the skull base 2 to […] anterior to the chiasma. After 30 minutes of equilibration 250 μl blood was withdrawn from the tail catheter and injected intracranially via this canula at a pressure equal to the mean arterial blood pressure (MABP) (80-100 mmHg). Subsequently the rat was kept under anaesthesia for another 60 minutes to allow recovery from the cerebral insult after which catheters were removed and incisions closed. The rat was then revitalized and extubated. A subcutaneous injection of carprofen (4.0 mg/kg) (Pfizer, Denmark) was administered and the rat was hydrated subcutaneously using […] isotonic sodium chloride at the end of the operation and at day one.

rats with induced SAH [2] = assay: Autoradiographic measurements of regional and global CBF after SAH; assay type: in vivo, rat; details: for reduction in regional CBF (rCBF) after SAH: 18 brain regions
Experimental: In addition they were treated with 20-50 μl; 10^-6 M of SB386023-b (a kind gift from Dr A A Parsons, GSK, UK) or the same volume of vehicle repeatedly 6, 12, 24 and 36 h after the induced SAH. This dose was based on a previous in vivo study with SAH.
In addition, they were treated with the PKC inhibitor RO-31-7549 (Calbiochem, Sweden) or vehicle in conjunction with the operation and after the induced SAH. All animals treated with RO-31-7549 received […] injections intracisternally of RO-31-7549 or vehicle in similar volume. Thus, 20 to 50 μl 10-^6 mol/L of RO-31-7549 was injected intracisternally at 30 mins before the induced SAH and after the SAH 20 μl 10-^6 mol/L of RO-31-7549 was administered repeatedly after 3, 6, 12, 24 and 32 h from the first RO-31-7549 injection. This dose was chosen on the basis of previous detailed work on isolated cerebral arteries (Hansen-Schwartz et al, 2002), the dose was chosen at near maximum inhibition and calculation of cerebrospinal fluid volume/turnover.
Regional and global cerebral blood flow was measured by a model originally described by Sakurada et al., (1978) and modified by Gjedde et al., (1980). In brief, after 48 hours of observation rats in the various groups (sham, SAH+vehicle and SAH treated with the raf inhibitor) were anaesthetized using 5% halothane in N2O/O2 (30:70). The animal was intubated and artificially ventilated with inhalation of 0.5-1.5% halothane in N2O/O2 (70:30) during the surgical procedure. The anaesthesia and the respiration were monitored by regularly withdrawing arterial blood samples for blood gas analysis (Radiometer AS, Denmark). A catheter to measure MABP was placed in the right femoral artery and a catheter for blood sampling was placed in the left femoral artery. This catheter was connected to a constant velocity withdrawal pump (Harvard apparatus 22, USA) for mechanical integration of tracer concentration. In addition, a catheter was inserted in one femoral vein for injection of heparin and for infusion of the radioactive tracer. The MABP was continuously monitored with a Powerlab Unit (ADInstruments, UK). A temperature probe was inserted into the rectum of the rat to record the temperature, which was regularly maintained at 37° C. The hematocrit was measured by a hematocrit centrifuge (Beckman Microfuge 11, USA). After 30 minutes of equilibration a bolus injection of 50 uCi of 14Ciodoantipyrine 4[N-methyl-14C] (Perkin-Elmer, Boston, USA) was given i.v. Arterial blood (122 μl) was withdrawn over 20 seconds. Immediately after this the animal was decapitated, the brain removed and immersed in isopentane (J. T. Baker, Deventer, Netherlands) chilled to −50° C. The arterial blood sample was transferred to liquid scintillation counting vials containing 1 ml mixture of Soluene-350 (Perkin-Elmer, Boston, USA) and Isopropanol (J. T. Baker, Deventer, Netherlands) (1:1). After 2 hours at 60° C., 0.2 ml of 30% hydrogen peroxide was added to the vials, and the samples were maintained at room temperature for 15-30 minutes. Thereafter the samples were kept at 60° C. for 30 minutes and 10-15 ml Hionic-Fluor (Perkin-Elmer, Foster, Calif., USA) was added. The β-radioactivity scintillation counting was performed on the samples with a program that included quench correction (Packard 2000 CA, Denmark). The 14C activity in the tissue was determined after sectioning the brain in 20 μm sections at −20° C. in a cryostat (Wild Leitz A/S, Glostrup, Denmark). The sections were exposed to x-ray films (Kodak, Denmark) together with 14C methylmethacrylate standards (Amersham Life Science, England) and exposed the films for 20 days. Densities of the autoradiograms were measured with a Macintosh computer equipped with an analog CF 4/1 camera (Kaiser, Germany) and a transparency flat viewer (Color-Control 5000, Weilheim, Germany). The 14C content was determined in several brain regions (see Table 2). […]

[3] = intracisternal injections from 30 min before SAH and repeatedly after

SMILES | physiological parameters (MABP, pCO2, pO2, hematocrit, temperature), difference between groups (rats with induced SAH [1]) | global reduction in CBF after SAH (rats with induced SAH [2]; [3]) | reduction in regional CBF (rCBF) after SAH (rats with induced SAH [2]; [3]) | global cerebral blood flow (rats with induced SAH [2]; measured at 48 h, treatment 6 h after the SAH, control 140±6, SAH 63±2) [ml/100 g/min] | reduction in regional CBF (rCBF) after SAH (rats with induced SAH [2]; treatment at 6 h after SAH) | reduction in regional CBF (rCBF) after SAH (rats with induced SAH [2]; treatment at 0 h / in conjunction with the SAH)
Cn1cc(C2=C(c3cn(CCCN)c4ccccc34)C(=O)NC2=O)c2ccccc21 [RO-31-7549] | No statistical difference | prevented the marked reduction in CBF | prevented this reduction in rCBF | – | – | –
Oc1cc(-c2nc(-c3ccccc3)[nH]c2-c2ccncc2)ccc1Cl [SB386023-b] | No statistical difference | – | – | 128±4 | prevented this reduction in rCBF | –
N#CC(=C(/N)Sc1ccccc1N)/C(C#N)=C(\N)Sc1ccccc1N [U0126] | No statistical difference | – | – | – | prevented this reduction in rCBF | prevented this reduction in rCBF

— patent publication US8273771B2, “Ischemic disorder or disease inhibitors” (Pronas Pharma AB, priority 2007, dated 2012)
